# Source: publication PMC10487304, “Shaping the “hot” immunogenic tumor microenvironment by nanoparticles co‐delivering oncolytic peptide and TGF‐β1 siRNA for boosting checkpoint blockade therapy” (Bioengineering & Translational Medicine, 2022)
# Where a SMILES comes first, the peptide text is derived from it. [ ]: non-standard residue; d: D form. The star is where a group is joined. FITC = O=C1OC2(c3ccc(O)cc3Oc3cc(O)ccc32)c2ccc(NC(=S)*)cc21; Dip = N[C@H](C(=O)O)C(c1ccccc1)c1ccccc1
# Key:
# [1] = Balb/c mice, FITC fluorescence (485/535 nm) in blood samples
# Method: At indicated time points, the mice were euthanized and the blood was taken from the heart. Sodium heparin was added to the blood samples at a concentration of 15 IU/ml. The fluorescence intensity of FITC‐LTX‐315 in the serum was measured using Tecan Infinite F200 Fluorescence Microplate Reader (Tecan, Seestrasse, Männedorf, Switzerland) at an excitation and emission wavelength of 485 and 535 nm, respectively.
# [2] = due to high serum protein binding ability; cited from earlier work
# Excerpt: Recently, several cationic antimicrobial peptides (CAPs), such as LTX‐315, have been extensively investigated as novel anticancer agents due to their ability to kill tumor cells and create a highly proinflammatory status of the TME, mainly via causing the destabilization of tumor cell plasma and mitochondrial membrane.[12] Subsequently, the CAPs trigger the immunogenic cell death (ICD) in tumor cells via Bax/Bak‐1 and caspase apoptotic pathways, which is along with the exposure or release of tumor antigens, danger‐associated molecular pattern (DAMP) molecules such as calreticulin, ATP and high ...
Compound,elimination after i.v. injection [1],fate upon systemic administration [2]
NCCCC[C@H](NC(=O)[C@@H](NC(=O)[C@H](Cc1c[nH]c2ccccc12)NC(=O)[C@H](CCCCN)NC(=O)[C@H](CCCCN)NC(=O)[C@H](Cc1c[nH]c2ccccc12)NC(=O)[C@H](Cc1c[nH]c2ccccc12)NC(=O)[C@H](CCCCN)NC(=O)[C@H](CCCCN)NC(=S)Nc1ccc2c(c1)C(=O)OC21c2ccc(O)cc2Oc2cc(O)ccc21)C(c1ccccc1)c1ccccc1)C(N)=O [FITC-LTX] ({FITC}-KKWWKKW[Dip]K-NH2),eliminated within few minutes,
NCCCC[C@H](NC(=O)[C@@H](NC(=O)[C@H](Cc1c[nH]c2ccccc12)NC(=O)[C@H](CCCCN)NC(=O)[C@H](CCCCN)NC(=O)[C@H](Cc1c[nH]c2ccccc12)NC(=O)[C@H](Cc1c[nH]c2ccccc12)NC(=O)[C@H](CCCCN)NC(=O)[C@@H](N)CCCCN)C(c1ccccc1)c1ccccc1)C(N)=O [LTX-315] (H-KKWWKKW[Dip]K-NH2),,rapidly degraded into nontoxic metabolites
